Experimental data taken from patent publication US11426346B2, “Lutein-containing ophthalmic composition” (Taipei Medical University, priority 2019, dated 2022).

Legend:
Type in all cases: cell-based, human
IL-1β = assay: Gene expression of inflammatory cytokine IL-1β in LPS-induced HCE-2 cells (Real-Time PCR); details: 500 ng/mL LPS 6 hours, then 2 hours treatment, compared with LPS group, FIG. 3A
Experimental: (§1) 3×10^5 (cell/ml) human corneal epithelial cells (HCE-2) were cultured in a 6-well plate and cultured overnight in an incubator for cell attachment, followed 500 ng/mL lipopolysaccharides (LPS) was added in culture medium for co-cultured with cells for 6 hours to induce cell inflammation. After 6 hours, the medium containing lipopolysaccharide (LPS) was removed, and the medium with the lutein, PVA was added to a 6-well plate. After 2 hours of treatment, the gene expressions of cellular inflammatory cytokines (IL-1β, IL-6, TNF-α) were detected by real-time polymerase chain reaction (Real-Time PCR). […]

TNF-α = assay: Gene expression of inflammatory cytokine TNF-α in LPS-induced HCE-2 cells (Real-Time PCR); details: 500 ng/mL LPS 6 hours, then 2 hours treatment, compared with LPS group, FIG. 3C
Experimental: as §1

IL-6 = assay: Gene expression of inflammatory cytokine IL-6 in LPS-induced HCE-2 cells (Real-Time PCR); details: 500 ng/mL LPS 6 hours, then 2 hours treatment, compared with LPS group, FIG. 3B
Experimental: as §1

CC1=C[C@H](O)CC(C)(C)[C@H]1/C=C/C(C)=C/C=C/C(C)=C/C=C/C=C(C)/C=C/C=C(C)/C=C/C1=C(C)C[C@@H](O)CC1(C)C [lutein (L), lutein]
inhibit the expression: gene expression of IL-1β (IL-1β) | gene expression of TNF-α (TNF-α) | gene expression of IL-6 (IL-6)
